Results on 10 molecules are retold here after PMC6713100, “Anticancer sulfonamide hybrids that inhibit bladder cancer cells growth and migration as tubulin polymerisation inhibitors” (Journal of Enzyme Inhibition and Medicinal Chemistry, 2019).

SMILES strings stand for the structures. A value given as a limit tells only on which side of the number the result lay.

In data set [1] the test system is MCF-7. The experiment in a line: CCK8 antiproliferative assay, breast cancer cells. The data set is classed as cell-based. The conditions noted are these: Homo sapiens, MCF7, treatment for 48 h, means of three independent experiments.
For data set [2], the system named is MDA-MB-453, SNU-423 and RT-112. The data set is described as follows: CCK8 antiproliferative assay, all three cancer cells. In kind it is cell-based. The conditions noted are these: CCK8, 48 h; read-out: IC50 against all three cancer cells. The protocol:
(§1) Breast cancer cells (MDA-MB-453), liver cancer cells (SNU-423), and bladder cancer cells (UM-UC-3, RT-112, RT4, T24) were purchased from the Shanghai culture company, and cultured at 37 °C in an atmosphere containing 5% CO2. 4,000 cells per well were seeded into a 96-well plate for 24 h and compounds were added to cluture 48 h. Next, 6 mg/ml CCK8 (20 µl) per well was added to explore the cell survival.
(§2) CCK8 method was used to investigate the anticancer activity in vitro of sulfonamide-dithiocarbamate hybrids 13a–13d against cancer cells for 48 h. MDA-MB-453 (breast cancer cells), SNU-423 (liver cancer cells) and RT-112 (bladder cancer cells) were selected to explore the antiproliferative activity. In this work, 5-fluorouracil (5-Fu) was used as the control drug.

Data set [3] relates to RT-112. The experiment in a line: CCK8 antiproliferative assay, bladder cancer cells RT-112. The data set is classed as cell-based. Conditions: Homo sapiens, treatment for 48 h. The protocol:
as §1, §2
(§3) In order to explore the antiproliferation ability, four bladder cancer cell lines (UM-UC-3, RT-112, RT4 and T24) were selected and treated with the hybrid 13d in the 24-well plate for 48 h and 72 h. […] Compared with the cell proliferation of 48 h, the cell proliferation of 72 h was decreased.

Data set [4] relates to SNU-423. The data set is described as follows: CCK8 antiproliferative assay, liver cancer cells. The data set is classed as cell-based. Conditions: Homo sapiens, treatment for 48 h, means of three independent experiments. The protocol: as §1, §2
Data set [5] deals with tubulin. The data set is described as follows: Tubulin polymerisation assay in vitro. The conditions noted are these: for IC50: 6 mg/ml tubulin, PEM buffer, 37 °C, read-out: IC50 tubulin polymerisation inhibitory activity in vitro. The data set is classed as biochemical. The protocol: (§4) An amount of 6 mg/ml tubulin was resuspended in the PEM buffer (80 mM PIPES (pH 6.9), 1 mM EGTA, 0.5 mM MgCl2, […], 10.2% (v/v) glycerol) and then was preincubated with a sulfonamide-dithiocarbamate hybrid 13d on the ice. The reaction was monitored by a spectrophotometer (Beijng Tianhe Company) at 37 °C to obtain the results of tubulin polymerisation in vitro. RT-112 cells were treated with sulfonamide-dithiocarbamate hybrid 13d for 48 h. Then, slices were fixed by 4% paraformaldehyde for 20 min and washed by PBS for five times. 0.6% Triton-X-100 was added and 0.1% BSA was used to block. β-tubulin antibody was added to incubate overnight at 4 °C. DAPI was used to stain and then images were captured.
Tubulin polymerisation assay investigated that compound 13d inhibited tubulin polymerisation in a concentration dependent manner.

The subject of data set [6] is HT-29 cell line. Set-up: method as in PMID 26774930. Conditions: read-out: IC50 HT-29 cell viability; cited from earlier work.
The subject of data set [7] is T47D cells. Set-up: method as in PMID 28212337. Conditions: read-out: IC50 T47D anticancer activity in vitro; cited from earlier work.
Data set [8] concerns RT4. The experiment in a line: Cell proliferation of bladder cancer cells RT4. The conditions noted are these: Homo sapiens, RT-4; treatment for 48 h. In kind it is cell-based. How it is done: as §1, §3
Data set [9] concerns UM-UC-3. The data set is described as follows: Cell proliferation of bladder cancer cells UM-UC-3. In kind it is cell-based. The conditions noted are these: Homo sapiens, UMUC3; treatment for 48 h. How it is done:
as §1, §3

In data set [10] the test system is E-cadherin, N-cadherin, Vimentin, Snail and Slung in RT-112 cells. The experiment in a line: Western blot of migration-related proteins. In kind it is cell-based. Conditions: 48 h, 0.5, 1 and 2 µM. The protocol:
RT-112 cells were treated with compound 13d and then lysed in a RIPA lysis buffer. The protein samples of RT-112 cells were electrophoresed on SDS-PAGE. Nextly, targeted proteins were transferred to PVDF membrane and incubated with antibodies (E-cadherin, N-cadherin, Vimentin, Snail and Slung). The markers were visualised by chemiluminescence detection reagents.
To further characterise the migration effect of sulfonamide-dithiocarbamate hybrid 13d, the expression levels of migration-related proteins (E-cadherin, N-cadherin, Vimentin, Snail and Slung) were investigated against RT-112 cells. Compound 13d was treated for 48 h at concentrations of 0.5, 1 and 2 µM, respectively. […] In addition, hybrid 13d increased the expression of E-cadherin in a concentration manner.

Data set [11] relates to RT-112 cells. The experiment in a line: Immunostaining of microtubules (β-tubulin antibody). The data set is classed as cell-based. The protocol: as §4
Tubulin polymerisation inhibitory effects of the sulfonamide-dithiocarbamate hybrid 13d were further explored by the immunofluorescent staining in RT-112 cells. […] However, after the exposure to 0.25 µM of compound 13d, the microtubule organisation in the cytosol were disrupted.

In data set [12] the test system is RT-112 cells. The data set is described as follows: Transwell migration assay. The conditions noted are these: 48 h. The data set is classed as cell-based. The protocol: Transwell chamber was used to do migration assay according to the reported references[17]^,[18]. Ten thousand RT-112 cells containing compound 13d were seeded in the top chambers for 24 h incubation. The bottom chambers were fixed and stained with crystal violet for 2 h. Finally, the chambers were washed with water, and the top membrane was left to dry.
Based on the antiproliferative activity results, compound 13d was selected to investigate the anticancer mechanisms against the RT-112 cell line. Corning transwell plate was used to do migration assay against RT-112 cells for 48 h. With the treatment of sulfonamide-dithiocarbamate hybrid 13d at 0.5, 1 and 2 µM, the migration rate of RT-112 cells was 76%, 40% and 29%, respectively.

For data set [13], the system named is T24. The experiment in a line: Cell proliferation of bladder cancer cells T24. In kind it is cell-based. The conditions noted are these: Homo sapiens, T-24; treatment for 48 h. How it is done: as §1, §3
The subject of data set [14] is RT-112 cells. The data set is described as follows: RT-112 xenograft nude mouse model. In kind it is in vivo, nude mice. The conditions noted are these: 80 mg/kg intragastric, every day for 21 days. How it is done: In vivo experiments were processed according to guidelines established by the ethics committee of the 4th affiliated hospital of CMU. Mice were implanted with RT-112 cells (1.5 × 10^7 cells per mouse) on the right flank of nude mice. The mice were divided into the saline group and sulfonamide-dithiocarbamate hybrid 13d (80 mg/kg) group (n = 5 mice for each group). Intragastric administration of hybrid 13d was performed every day for a period of 21 days.
In order to investigate the tumor growth effects of compound 13d, the xenograft nude mouse of RT-112 cells were established.

Data set [15] concerns MCF-7 cells. Set-up: method as in PMID 28802125. Conditions: read-out: IC50 MCF-7 antiproliferative activity; cited from earlier work.

Turning to `COc1cc(N(CCCBr)S(=O)(=O)c2cccc3cccnc23)cc(OC)c1OC` [Compound 12, N-(3-bromopropyl)-N-(3,4,5-trimethoxyphenyl)quinoline-8-sulfonamide], the melting point is 129 to 131 °C. Moreover, the IC50 in data set [1] is over 40 µM. The 50% inhibitory concentration (IC50) in data set [2] is over 40 µM. The IC50 in data set [3] is over 40 µM. In addition, the IC50 in data set [4] was over 40 µM.

For the molecule `COc1cc(N(CCCSC(=S)N2CCN(CCO)CC2)S(=O)(=O)c2cccc3cccnc23)cc(OC)c1OC` [Compound 13c, 3-(N-(3,4,5-trimethoxyphenyl)quinoline-8-sulfonamido)propyl-4–(2-hydroxyethyl)piperazine-1-carbodithioate], the melting point was 106 to 108 °C. The same molecule returned an IC50 in [1] of 4.2 ± 0.1 µM. In addition, the IC50 in data set [5] is 3.4 µM. The tubulin polymerisation inhibition result in [5] (at 2 µM) is “weak inhibition”. The tubulin polymerisation inhibition entry in data set [5] (at 6 µM) is “significantly inhibited”. Also, inhibition in data set [3] was half-maximal at 4.1 ± 0.6 µM (IC50). The molecule further registered an IC50 in data set [4] of 3.6 ± 0.7 µM.

Turning to `NS(=O)(=O)c1ccc(Nc2nc(-c3ccc(Cl)cc3)nc3ccccc23)cc1` [Compound 2], the IC50 in data set [6] was 5.45 µM.

For `O=c1[nH]cc(F)c(=O)[nH]1` [Compound 5-Fu, 5-fluorouracil, reference compound], the IC50 in [1] was 7.4 ± 0.5 µM; in data set [3], 13.6 ± 0.2 µM; in data set [4], 10.8 ± 0.7 µM.

Regarding `C#CCSc1ccnc2c(S(=O)(=O)N(C)CC#C)cccc12` [Compound 4], the IC50 in data set [7] is 0.27 µM.

Consider `COc1cc(N(CCCSC(=S)N2CCN(C)CC2)S(=O)(=O)c2cccc3cccnc23)cc(OC)c1OC` [Compound 13a, 3-(N-(3,4,5-trimethoxyphenyl)quinoline-8-sulfonamido)propyl-4-methylpiperazine-1-carbodithioate], for which the melting point is 96 to 98 °C. Also, the midpoint of inhibition in [1], the IC50, lay at 6.4 ± 1.2 µM. In addition, the IC50 in data set [3] is 7.8 ± 0.4 µM. In data set [4], the IC50 was determined as 8.7 ± 0.9 µM.

In turn, `COc1cc(NS(=O)(=O)c2cccc3cccnc23)cc(OC)c1OC` [Compound 11, N-(3,4,5-trimethoxyphenyl)quinoline-8-sulfonamide] displayed a melting point of 181 to 183 °C. This molecule also gave an IC50 in data set [1] of over 40 µM. The IC50 in data set [2] was over 40 µM. Besides, the IC50 in data set [3] is over 40 µM. In addition, the IC50 in data set [4] is over 40 µM.

On to `CCN1CCN(C(=S)SCCCN(c2cc(OC)c(OC)c(OC)c2)S(=O)(=O)c2cccc3cccnc23)CC1` [Compound 13b, 3-(N-(3,4,5-trimethoxyphenyl)quinoline-8-sulfonamido)propyl-4-ethylpiperazine-1-carbodithioate], for which the melting point was in the range of 131 to 133 °C. For the same molecule, in data set [1], the IC50 was 8.5 ± 0.7 µM. Besides, in data set [3], the midpoint of inhibition, the IC50, lay at 6.8 ± 0.7 µM. Also, the half-maximal inhibitory concentration (IC50) in data set [4] came out at 5.4 ± 0.3 µM.

Consider `COc1cc(N(CCCSC(=S)N2CCN(C(C)=O)CC2)S(=O)(=O)c2cccc3cccnc23)cc(OC)c1OC` [Compound 13d, 3-(N-(3,4,5-trimethoxyphenyl)quinoline-8-sulfonamido)propyl-4-acetylpiperazine-1-carbodithioate], for which the melting point lay within 128 to 129 °C. This molecule yielded an IC50 in data set [8] of 1.9 µM. In data set [9], this molecule registered an IC50 of 0.9 µM. For the same molecule, in data set [1], it took 2.8 ± 0.2 µM to reach half-maximal inhibition (IC50). Also, in [10], the “expression of E-cadherin” value was “increased”, the “expression of N-cadherin” value is on record as “decreased”, the “expression of Slung” value is “decreased” and the “expression of Snail” value was “decreased”. Further, in [10], the “expression of Vimentin” value is “decreased”. In addition, the “microtubule organisation in the cytosol” value in [11] (0.25 µM) is listed as “disrupted”. For the same molecule, the “changes of the mitotic spindles” value in [11] (0.5 µM) is “more clearly observed”. Moreover, the “migration rate of RT-112 cells” value in [12] (13d at 0.5 µM) came out at 76%. The “migration rate of RT-112 cells” value in data set [12] (13d at 1 µM) is given as 40%. The “migration rate of RT-112 cells” value in [12] (13d at 2 µM) is 29%. For the same molecule, the half-inhibitory concentration (IC50) in [5] stood at 2.9 µM. Moreover, the tubulin polymerisation inhibition entry in [5] (at 2 µM) was “weak inhibition”. Besides, the tubulin polymerisation inhibition entry in data set [5] (at 6 µM) is reported as “significantly inhibited”. The same molecule came in with an IC50 in data set [3] of 0.7 ± 0.1 µM. This molecule gave an IC50 in data set [13] of 2.6 µM. Moreover, in data set [14], the average tumor weight worked out at 0.51 ± 0.21 g, the “body weights versus control group” value is “no significant difference”, the “inhibitory rate (tumor weight)” value amounted to 66.67% and the “tumor volume versus control group” value was “obviously less than that of the control group”. The same molecule showed a half-inhibitory concentration (IC50) in data set [4] of 3 ± 0.1 µM.

Regarding `NS(=O)(=O)c1ccc(/N=C2\NC(=O)/C(=C3/C(=O)Nc4ccc(Cl)cc43)S2)cc1` [Compound 3], the IC50 in data set [15] was 3.96 µM.
